Results published in patent US20260240901A1, “COMBINATION OF NITROUS OXIDE AND 5-HT2A RECEPTOR AGONISTS” (Cybin IRL Limited, priority 2022, published 2026).
Like-named read-outs stand apart in the source and are kept apart here.

Tests used:
[1] = in vivo; cited from earlier work
human participants = conditions: cited from earlier work
[2] = human, intravenous; cited from earlier work
neural oscillations = test: Experiment 7: topographic pharmaco-EEG mapping of N2O+DMT (planned); conditions: healthy humans, following DMT administration
[3] = rats, intraperitoneal injection; cited from earlier work
[4] = system: head-twitch responses (HTRs); conditions: 1 mg/kg, intraperitoneal, rats and mice; cited from earlier work
[5] = Brain pharmacokinetics of co-administered DMT and DMT-d10 in male rats (IV bolus); type: in vivo, Sprague Dawley rats; conditions: for Brain Cmax: IV bolus 1 mg/kg each, co-dosed (Group 4)
Procedure: Experimental Design. This was a single dose study with 4 treatment groups as outlined in Table 1.
Sampling collection. PK samples (0.3 mL) were collected from the jugular vein by venepuncture into tubes containing K2EDTA anticoagulant at the following sampling times: Group 1 (IV) and Group 2 (oral) serial plasma collection at 0.083, 0.25, 0.5, 1, 3, 8 and 24 hr postdose; Group 4 (IV) composite plasma and brain collection at 0.083, 0.25, 0.5 and 1 hr postdose; Group 6 (inhalation) serial plasma collection at 0.333, 0.533, 0.833, 1.333, 3.333, 8.333 and 24.333 after start of inhalation.
Brain samples: After extraction of whole brain from the cranium, brains were rinsed, patted dry, weighed, placed into tubes and frozen on dry ice. Thereafter, they were stored at −70 […] pending analysis.
Bioanalysis. Plasma and brain homogenates were analyzed for DMT and DMT-d10 using an established LC-MS/MS assay.) Pharmacokinetic parameters were determined from the DMT and DMT-d 10 plasma and brain concentration-time profiles using commercially available software (Phoenix® WinNonlin®).

[6] = Plasma pharmacokinetics of co-administered DMT and DMT-d10 in male rats (IV bolus, oral gavage, inhalation); conditions: for time of highest plasma concentration (first time point taken): IV bolus 1 mg/kg each; for time of highest plasma concentration (first time point taken) / mean residence time (MRT) after inhalation compared to IV administration: male rats; for F (bioavailability), inhalation: inhalation 14.3 (DMT) + 15.5 (DMT-d10) mg/kg, calculated from dose normalized AUC0-1 mean values vs Group 4 IV; for mean residence time (MRT) after inhalation compared to IV administration: inhalation vs IV; for AUC0-1/dose: plasma
[7] = system: fibroblast growth factor 2 (fgf2); test: RTqPCR gene expression in mouse left frontal cortex: fgf2; conditions: 60 min treatment + 60 min room air, DMT-d10 5.6 mg/kg s.c., N2O 50% inhaled
bdnf = test: RTqPCR gene expression in mouse left frontal cortex: bdnf; type: in vivo, mice (C57B16/J); conditions: 60 min treatment + 60 min room air, DMT-d10 5.6 mg/kg s.c., N2O 50% inhaled
[8] = system: early growth response protein 2 (egr2); test: RTqPCR gene expression in mouse left frontal cortex: egr2; conditions: 60 min treatment + 60 min room air, DMT-d10 5.6 mg/kg s.c., N2O 50% inhaled
[9] = biological target: T1, serotonin 5-HT2A receptor (Mus musculus, UniProt P35363); test: Head twitch response (HTR) in mice, DMT-d10 with or without N2O; type: in vivo, mice (C57B16/J); conditions: DMT-d10 5.6 mg/kg s.c.; for head twitch responses (HTRs), result in words: mice, room air or N2O 50%, first 30 minutes; for Mean rank diff., total HTRs: Dunn's multiple comparisons, Veh/Air vs. treatment, N2O 50% inhaled
T1 construct: Mice were exposed to a medium dose of the 5-HT2A agonist DMT-d10; from tissue; host or cells: living adult male C57Bl6/J mice (in vivo behavioural assay)
Procedure: Experiment 1—Effect of N2O on the pharmacodynamic effects of DMT-d10. The dose-dependent behavioral effects of N2O on DMT-d10-induced head twitch response (HTR) in mice was determined.
Rationale: The head-twitch response (HTR) is a rapid side-to-side head movement that occurs in mice and rats after the serotonin 5-HT2A receptor is activated. The HTR is widely used as a behavioral assay for 5-HT2A activation and to probe for interactions between the 5-HT2A receptor and other transmitter systems (see Halberstadt, A. L. & Geyer, M. A. Characterization of the head-twitch response induced by hallucinogens in mice: detection of the behavior based on the dynamics of head movement. Psychopharmacology (Berl) 227, 10.1007/s00213-013-3006-z (2013); Canal, C. E. & Morgan, D. Head-twitch response in rodents induced by the hallucinogen 2,5-dimethoxy-4-iodoamphetamine: a comprehensive history, a re-evaluation of mechanisms, and its utility as a model. Drug Test Anal 4, 556-576 (2012)).
Data analysis: The number of head twitches over the first 30 minutes was summed (0-15 minutes, 15-30 minutes intervals) and analyzed by non-parametric Kruskal Wallis test with Dunn's multiple comparison tests between groups.

[10] = system: serum/glucocorticoid regulated kinase 1 (sgk1); test: RTqPCR gene expression in mouse left frontal cortex: sgk1; conditions: 60 min treatment + 60 min room air, DMT-d10 5.6 mg/kg s.c., N2O 50% inhaled
syn1 = test: RTqPCR gene expression in mouse left frontal cortex: syn1; type: in vivo, mice (C57B16/J); conditions: 60 min treatment + 60 min room air, DMT-d10 5.6 mg/kg s.c., N2O 50% inhaled
c-fos = test: RTqPCR gene expression in mouse left frontal cortex: c-fos; conditions: 60 min treatment + 60 min room air, DMT-d10 5.6 mg/kg s.c., N2O 50% inhaled
homer1 = test: RTqPCR gene expression in mouse left frontal cortex: homer1; type: in vivo, mice (C57B16/J); conditions: 60 min treatment + 60 min room air, DMT-d10 5.6 mg/kg s.c., N2O 50% inhaled
[11] = system: Adult Male Laboratory Mice (C57B16/J); test: Locomotor activity (distance travelled, Ethovision) in mice; type: in vivo; conditions: DMT-d10 5.6 mg/kg s.c.; for Mean rank diff., total distance travelled: Dunn's multiple comparisons, Veh/Air vs. treatment, N2O 50% inhaled
[12] = IV bolus of DMT (as fumarate salt) 0.05-0.4 mg/kg
[13] = brain, male rats, IV bolus 1 mg/kg each (Group 4)
[14] = Inhalation 14.3 (DMT) / 15.5 (DMT-d10) mg/kg

T1 sequence (P35363 whole entry): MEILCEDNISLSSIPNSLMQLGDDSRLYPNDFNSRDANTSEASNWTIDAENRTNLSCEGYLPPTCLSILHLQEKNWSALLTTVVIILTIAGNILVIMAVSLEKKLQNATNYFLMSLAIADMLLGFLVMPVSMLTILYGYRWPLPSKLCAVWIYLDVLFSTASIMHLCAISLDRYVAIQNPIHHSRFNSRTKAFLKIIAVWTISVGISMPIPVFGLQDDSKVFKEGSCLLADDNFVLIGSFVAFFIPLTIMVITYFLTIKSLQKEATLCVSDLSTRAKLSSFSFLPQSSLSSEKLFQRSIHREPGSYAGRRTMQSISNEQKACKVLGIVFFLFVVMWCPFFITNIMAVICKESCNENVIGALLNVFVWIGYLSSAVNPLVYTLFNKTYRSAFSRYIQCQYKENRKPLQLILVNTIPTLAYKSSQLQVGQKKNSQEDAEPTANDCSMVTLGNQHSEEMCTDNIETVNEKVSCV

SMILES	elimination half-life [1]	Brain AUC0-t [5, 13]	Brain Cmax ([5]; brain, male rats)	time of highest plasma concentration (first time point taken) [6]	F (bioavailability), inhalation [6]	mean residence time (MRT) after inhalation compared to IV administration [6]	AUC0-1/dose [6, 14]	AUC0-1/dose ([6]; Intravenous 1 mg/kg each)	AUC0-1/dose ([6]; Oral 10 mg/kg each)	fgf2 gene expression, percentage change compared to control (Veh/Air), % mean [7]	bdnf gene expression, percentage change compared to control (Veh/Air), % mean (bdnf)	egr2 gene expression, percentage change compared to control (Veh/Air), % mean [8]	head twitch responses (HTRs), result in words [9]	Mean rank diff., total HTRs ([9]; minutes 0-15)	Mean rank diff., total HTRs ([9]; minutes 15-30)	sgk1 gene expression, percentage change compared to control (Veh/Air), % mean [10]	syn1 gene expression, percentage change compared to control (Veh/Air), % mean (syn1)	c-fos gene expression, percentage change compared to control (Veh/Air), % mean (c-fos)	homer1 gene expression, percentage change compared to control (Veh/Air), % mean (homer1)	Mean rank diff., total distance travelled ([11]; minutes 0-15)	other results
COc1ccc2[nH]cc(CCN(C)C)c2c1 [5-MeO-DMT, 5-methoxy-N,N-dimethyltryptamine]	12 to 19 min	–	–	–	–	–	–	–	–	–	–	–	–	–	–	–	–	–	–	–	–
CN(C)CCc1c[nH]c2ccccc12 [DMT, N,N-dimethyltryptamine]	12 to 19 min	1060 ng·h/g	3430 ng/g	0.083 h	16.3%	approximately 5 ×	18.2	112	1.52	–	–	–	–	–	–	–	–	–	–	–	hallucinogenic effect (human participants; 0.1 mg/kg IV): not hallucinogenic; hallucinogenic effect (human participants; 0.2 and 0.4 mg/kg IV): nearly instantaneous onset of visual hallucinatory phenomena; time by which psycho-biological effects resolve (human participants; [12]): ≤ 30 minutes; time of peak of psycho-biological effects (human participants; [12]): 120 seconds; duration of effect of vaporized DMT (human participants; vaporized or inhaled free-base, 40-50 mg): less than 30 min; half-life [2]: around 15 minutes; time to peak plasma concentrations [2]: approximately 2 minutes; absolute power in EEG frequency bands (neural oscillations): decreased absolute power in all frequency bands; half-life [3]: 5 to 15 min; time to be metabolized and cleared from brain, liver, and plasma [3]: ≤ 1 h; hallucinogenic potential as measured by head-twitch responses (HTRs) [4]: sub-hallucinogenic; Brain AUC0-inf [5, 13]: 1070 ng·h/g
[2H]C([2H])([2H])N(C([2H])([2H])[2H])C([2H])([2H])C([2H])([2H])c1c[nH]c2ccccc12 [DMT-d10]	–	931 ng·h/g	1490 ng/g	0.083 h	22.6%	approximately 5 ×	17.0	75.4	0.878	3.13%	−9.25%	8.24%	modest number of HTRs	−22.65	−12.80	15.58%	1.47%	18.57%	2.44%	16.50	improvement of brain to plasma (B/P) ratio by deuteration ([5]; DMT-d10 vs. DMT, IV 1 mg/kg, rats): approximately 30%; increase of inhalation bioavailability by deuteration ([6]; DMT-d10 vs. DMT, inhalation, rats): approximately 40%; distance travelled (locomotor behavior), result in words ([11]; mice, room air or N2O 50%, minutes 0-15 and 15-30): travelled less distance than the vehicle/air group; Mean rank diff., total distance travelled ([11]; minutes 15-30): 19.30
[N-]=[N+]=O [N2O, nitrous oxide]	–	–	–	–	–	–	–	–	–	5.24%	15.67%	38.30%	attenuates DMT-d10-induced HTRs	−1.250	0.000	33.82%	13.38%	32.29%	29.35%	−11.40	Mean rank diff., total distance travelled ([11]; minutes 15-30): −8.000
